In BindingDB's records for doi:10.1021/jm401604x (University of Auckland, 2014):

assay: Inhibition of recombinant perforin (unknown origin)-mediated lysis of human [51Cr]-labelled Jurkat cells assessed as release of [51Cr] preincubated for 30 mins followed by addition of cells measured after 4 hrs by gamma counting analysis

IC50	Structure (SMILES)
> 20 µM	CN1CCN(CCCN2Cc3cc(-c4ccc(/C=C5/NC(=S)NC5=O)s4)ccc3C2=O)CC1
> 20 µM	CN(C)CCCN1Cc2cc(-c3ccc(/C=C4/NC(=S)NC4=O)s3)ccc2C1=O
> 20 µM	O=C1NC(=S)N/C1=C/c1ccc(-c2ccc(C(=O)NCCN3CCOCC3)cc2)s1
> 20 µM	O=C1NC(=S)N/C1=C/c1ccc(-c2ccc(C(=O)N3CCOCC3)cc2)s1
> 20 µM	O=C1NC(=S)N/C1=C/c1ccc(-c2ccccc2Cl)s1
> 20 µM	O=C1NC(=S)N/C1=C/c1ccc(-c2ccccc2)s1
